Active and inactive are the calls of the source.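 How the source made its calls: active means AC50 no more than ten times the top concentration tested, that is within one log above it; inconclusive means flat curve fit with activity between 30% and 70%, or invalid poor fit; inactive means AC50 beyond ten times the top tested dose.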 A value given as a limit tells only on which side of the number the result lay.

This assay has as its system S. cerevisiae Mot1-301 ts growth rescue, BacTiter-Glo ATP luminescence. Kind of assay: growth rescue of Mot1-301 ts yeast, confirmation, SUMOylation pathway inhibitor project, whole organism, S. cerevisiae, Mot1-301 ts mutant, luminescence, dose retest (AID 463204).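 Further: growth at restrictive 38.5 degrees C of Mot1-301 OY566 strain; actives raise luminescence by restoring growth of the ts mutant at high temperature.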

With `O=C(COc1ccc([N+](=O)[O-])cc1)Nc1ccc(C(=O)NCc2cccnc2)cc1`, the AC50 was > 42 µM (inactive). The value for `Cc1ccccc1-c1nnc(CN2CCC(C)CC2)o1` was > 42 µM (inactive); that for `O=C(CCC(F)(F)F)N1CCCC(CO)(CCc2ccccc2)C1` (centres undefined) was > 42 µM (inactive); that for `CCCCn1c(=O)[nH]c(=O)c2c1nc(COc1ccc(C#N)cc1)n2CCC` was > 42 µM (inactive). On to `CC1(C)C2CC=C(/C=N/NC(=S)Nc3cccnc3)C1C2` (centres undefined), for which the AC50 is > 42 µM (inactive). With `CN1C2CCC1CC(OC(=O)c1ccc([N+](=O)[O-])cc1)C2` (centres undefined) the figure was > 42 µM (inactive). With `COc1cc2cc(C)c3nnc(SCC(=O)Nc4cc(C)on4)n3c2cc1OC` the figure was > 42 µM (inactive); with `CCOC(=O)c1c(C)[nH]c(C(=O)COC(=O)c2ccncc2)c1C`, > 42 µM (inactive); with `Cc1ccc2c(c1)C(=O)N1[C@H]3c4ccccc4OC[C@@H]3[C@H](c3ccccc3)[C@]1(C)C(=O)N2`, 0.86 µM. The value for `COCC(=O)Nc1c(C(=O)Nc2ccc3c(c2)OCO3)oc2ccccc12` was > 42 µM (inactive).

As for `CCCCn1c(/C=N/Nc2nc3ccccc3[nH]2)nc2ccccc21`, the AC50 was 3.98 µM.

For `Fc1cccc(NC(=S)N2CCn3cccc3C2c2cccnc2)c1` (centres undefined), the AC50 was > 42 µM (inactive). Take `CCC(=O)Nc1ccc(S(=O)(=O)NCc2ccco2)cc1`: the AC50 was > 42 µM (inactive). On to `C=CCC(NCCCO)c1cccc(OC)c1OC` (centres undefined), for which the AC50 is > 42 µM (inactive). With `Cc1ccc(N/C=C(\C#N)c2ccc(OCCCF)cc2)cc1` the figure was > 42 µM (inactive); with `Cc1ccc(NC2CC(=O)N(c3ccc(N4CCCCC4)cc3)C2=O)cc1` (centres undefined), > 21 µM (inactive); with `C/C(O)=C(\N=Nc1cc(C)ccc1O)C(N)=O`, > 42 µM (inactive). As for `CC(=O)Nc1ccc(S(=O)(=O)Nc2cccc(-c3ccc4nncn4n3)c2)cc1`, the AC50 was > 42 µM (inactive). Regarding `Cc1nc2ccc(NC(=O)c3ccc(S(=O)(=O)N4CCOCC4)cc3)cc2s1`, the AC50 was > 42 µM (inactive). With `CCOC(=O)c1ccc(NC(=O)NCc2ccncc2)cc1` the figure was > 42 µM (inactive). For the molecule `Cc1cc(C)cc(-n2ncc3c2CCCC3NC(=O)c2cc(C)[nH]n2)c1` (centres undefined), the AC50 is > 42 µM (inactive). With `Cc1ccc(CN(C)C(=O)c2ccc3c(c2)NC(=O)CS3)o1` the figure was > 42 µM (inactive). With `O=S(=O)(Nc1cccc2cn[nH]c12)c1ccc(F)cc1`, the AC50 was > 42 µM (inactive). With `CC1(C)Cc2nc3sc4c(OCc5ccccc5)ncnc4c3cc2CO1` the figure was > 42 µM (inactive); with `CN(C)c1ccc(NS(=O)(=O)c2cccc(Cl)c2)cc1`, > 42 µM (inactive); with `Cc1cccc(N2CCN(CCCNC(=O)c3ccc(NC(=O)C4=CSCCO4)cc3)CC2C)c1` (centres undefined), > 42 µM (inactive). The value for `COC(=O)[C@@H]1C[C@@H]2CC[C@@H](O)C[C@@H]2N1Cc1ccc(N2CCN(C)CC2)cc1` was > 42 µM (inactive); that for `COc1ccc(C2SCC(=O)Nc3c2c(=O)[nH]n3C2CCCCC2)cc1` (centres undefined) was > 42 µM (inactive).

In the case of `CS(=O)(=O)c1ccc(Cl)c(NC(=O)c2ccc3ccccc3c2)c1`, the AC50 was > 42 µM (inactive). The value for `O=C(OCc1nnc(-c2ccccc2)o1)c1ccc([N+](=O)[O-])o1` was 4.12 µM; that for `COC(=O)[C@@H]1[C@@H](C(=O)OC)C2(c3ccccc3-c3ccccc32)N(c2ccc(Cl)cc2)N1C#N` was 1.72 µM. On to `C=C(C)Cn1c(N)cc(=O)nc1SCC(=O)Nc1cccc(C(F)(F)F)c1`, for which the AC50 was > 42 µM (inactive).

`O=C(c1ccccc1)C(CN1CCCC1)c1ccccc1` (centres undefined): the AC50 is 4.34 µM. With `COc1ccc(-c2cc(C(=O)Nc3cc(C)ccc3O)no2)cc1` the figure was > 42 µM (inactive); with `O=C(c1ccc(OC2CCN(CCc3ccccc3)CC2)cc1)N1CCCC1`, > 42 µM (inactive). As to `CC(=O)N1CCc2cc(S(=O)(=O)CCC(=O)N3CCN(C(=O)c4ccco4)CC3)ccc21`, the AC50 is > 42 µM (inactive). Take `CC(C)C(NC(=S)Nc1ccccc1)C(=O)O` (centres undefined): the AC50 is > 42 µM (inactive). Regarding `O=C(CC(c1ccccc1)c1ccccc1O)NCCN1CCOCC1` (centres undefined), the AC50 was > 42 µM (inactive). On to `Cn1c(=O)c2c(ncn2CC(=O)N2CCCCCC2)n(C)c1=O`, for which the AC50 was > 42 µM (inactive). As for `Cc1ccc2nc(NC(=O)C3CCN(S(=O)(=O)c4cccnc4)CC3)sc2c1`, the AC50 was > 42 µM (inactive). `COc1cc(C(=O)COC(=O)c2cc([N+](=O)[O-])ccc2N2CCOCC2)ccc1OC(F)F`: the AC50 was 29.4 µM. Consider `Cc1cc(C)c(NC(=O)CCN2CCN(Cc3ccccc3)CC2)c(C)c1`, for which the AC50 is > 42 µM (inactive). Regarding `CCCNCc1cc(OCC)c(OCC(N)=O)cc1Br`, the AC50 was > 42 µM (inactive).

Consider `Cc1nc2ccccc2c2ncccc12`, for which the AC50 was > 42 µM (inactive). The value for `CCCCC1=CC2=CC(=O)C(C)(OC(=O)CC)C(=O)C2=CN1CCCOC(C)C` (centres undefined) was > 42 µM (inactive); that for `CCN(CC)c1ncnc2ccc(Br)cc12` was > 42 µM (inactive). Regarding `O=c1[nH][nH]c(C(F)(F)F)c1C=NCc1cccs1`, the AC50 was > 42 µM (inactive). As for `Fc1cccc(F)c1-c1nc(-c2ccncc2)no1`, the AC50 is > 42 µM (inactive). The value for `Cc1nnc(NC(=O)c2cccc(S(=O)(=O)N3CCCC3)c2)s1` was > 42 µM (inactive); that for `O=C(CCSc1nnc(-c2ccncc2)o1)Nc1ccc(Cl)cc1` was > 42 µM (inactive). Turning to `Cc1ccc(SCC(=O)O/N=C(\N)c2cccc([N+](=O)[O-])c2)cc1`, the AC50 is > 42 µM (inactive).

`Cc1cccc(OCc2nnc(SCC(=O)O)n2-c2ccccc2)c1`: the AC50 is > 42 µM (inactive). With `COc1ccccc1NC(=O)CSc1nc(O)c(Cc2ccccc2)c(=O)[nH]1`, the AC50 was > 42 µM (inactive). The value for `CCOC(C(=O)OCCCN(CC)CC)(c1ccccc1)c1ccccc1` was > 42 µM (inactive); that for `CC(C)CC(c1nnnn1C1CCCCC1)N1CCN(C(=O)c2ccco2)CC1` (centres undefined) was > 42 µM (inactive); that for `O=C(O)c1ccc(S(=O)(=O)N2CCN(c3ccccn3)CC2)cc1` was > 42 µM (inactive).

As for `Cn1c(C(=O)NCCc2ccsc2)cc2c(=O)n(C)c3ccccc3c21`, the AC50 was > 42 µM (inactive). The value for `Cc1cc(=O)n2[nH]c(-c3ccc(F)cc3)nc2n1` was > 42 µM (inactive); that for `COc1ccc(CN(CC(=O)NCC2CCCO2)C(=O)CCC(=O)Nc2cc(C)on2)cc1` (centres undefined) was > 42 µM (inactive); that for `CCn1c(CSCc2ccc(F)cc2)nnc1SCC(=O)NCc1ccccc1` was > 42 µM (inactive).

In the case of `COc1ccc(-c2cc(=O)c3cc(O)ccc3o2)cc1`, the AC50 was > 42 µM (inactive).

For the molecule `COc1ccc(CCN2CC(C(=O)N(C)CC(=O)Nc3cccc(F)c3)CC2=O)cc1OC` (centres undefined), the AC50 was > 42 µM (inactive). The value for `CCCN1C(=O)c2ccccc2NC1c1ccc(C)cc1` (centres undefined) was > 42 µM (inactive).

Take `CCOC(=O)CS(=O)(=O)c1ccc2ccccc2c1`: the AC50 is > 42 µM (inactive). Turning to `CC1(C)CC(=O)C(C=Nc2ccc(O)c(N=CC3=C(O)CC(C)(C)CC3=O)c2)=C(O)C1`, the AC50 was > 42 µM (inactive).

Consider `CCOC(=O)c1ccccc1NC(=O)CSc1ccc(-c2ccccn2)nn1`, for which the AC50 is > 42 µM (inactive). Turning to `S=c1[nH]ccn1-c1cccc(Cl)c1`, the AC50 is > 42 µM (inactive). With `C=CCn1c(=N)c(C(=O)NCCCOC)cc2c(=O)n3ccccc3nc21`, the AC50 is > 42 µM (inactive). The value for `Cn1cc(C(=O)Cc2ccccc2)c2ccccc21` was > 42 µM (inactive); that for `O=C(N1CCOCC1)C1(S(=O)(=O)c2ccccc2)CC=CC1` was > 42 µM (inactive); that for `CN(C)c1ccc(C(CNS(=O)(=O)c2ccc([N+](=O)[O-])cc2)N2CCOCC2)cc1` (centres undefined) was > 42 µM (inactive). `O=C(CSc1nnc(-c2cccs2)n1-c1ccccc1)c1ccc2c(c1)OCCO2`: the AC50 was > 42 µM (inactive). On to `CN1c2ccccc2-c2nc3ccccc3n2C1c1ccncc1` (centres undefined), for which the AC50 is > 42 µM (inactive).

Take `O=C(NCc1ccco1)C1CC(=O)N(c2ccc(Cl)cc2)C1` (centres undefined): the AC50 is > 42 µM (inactive). The value for `COc1ccc(Nc2oc(-c3cccs3)nc2C#N)cc1` was > 42 µM (inactive). The value for `OCCc1c[nH]c2cc(F)ccc12` was > 110 µM (inactive); that for `N#CC1=C(N)OC2=C(C(=O)CCC2)C1C1CC=CCC1` (centres undefined) was > 42 µM (inactive); that for `O=C(NCc1ccccc1Cl)C(=O)NCC1CCCN1S(=O)(=O)c1cccs1` (centres undefined) was > 42 µM (inactive). With `CN(C)S(=O)(=O)c1cccc(NC(=O)C(c2ccccc2)c2ccccc2)c1` the figure was > 42 µM (inactive); with `Cc1ccc(O)c(C)c1`, > 42 µM (inactive). As to `O=C(/C=C/c1ccc(F)cc1)NCC1(c2ccccc2)CCOCC1`, the AC50 is > 42 µM (inactive). The value for `Cc1cc(F)ccc1S(=O)(=O)Nc1ccccc1C(=O)Nc1ccc2[nH]c(=O)[nH]c2c1` was > 42 µM (inactive); that for `O=C(O)CC(NC(=O)OCc1ccccc1)c1ccc(Br)cc1` (centres undefined) was > 42 µM (inactive); that for `COc1cc(/C=N/NC2=NS(=O)(=O)c3ccccc32)cc(OC)c1OC` was > 42 µM (inactive). With `COc1ccc(-c2csc(NC(=O)C3CSC4(C)CCC(=O)N34)n2)cc1` (centres undefined) the figure was > 42 µM (inactive); with `Cc1cc(C)c2c(Cn3ccnc3)cc(=O)oc2c1`, > 42 µM (inactive); with `COc1ccc(S(=O)(=O)N2CCc3cc4c(cc3C2C)OCCCO4)cc1` (centres undefined), > 42 µM (inactive). Consider `COc1ccc(C)cc1NC(=O)Cn1c(=O)oc2ccccc21`, for which the AC50 was > 42 µM (inactive). Regarding `Cc1ccc(NS(=O)(=O)c2csc(C(N)=O)c2)cc1C`, the AC50 is > 42 µM (inactive).
